From patent US6040149A, “Assay for identifying agents which act on the ceramide-activated protein kinase, kinase suppressor of ras, and methods of using said agents” (priority 1997, dated 2000)

How the values were obtained:
[1] = tested on: ceramide-activated protein kinase; assay: CAP kinase activation in HL-60 cells (renaturation and autophosphorylation); type: cell-based, human (HL-60 cells); conditions: TPA 100 ng/ml
Method: Stimulation of ceramide-activated protein (CAP) kinase by lipid A. On the day of an experiment, HL-60 cells were resuspended (1×10^6 cells ml^-1) into serum-free RPMI 1640 containing 5 μg ml^-1 insulin and transferrin. After 2 h, cells were stimulated with lipid A (Escherichia Coli) or diluent (DMSO, <0.01%). Ceramide-activated protein kinase contained within microsomal membranes was detected by renaturation and autophosphorylation. Briefly, membrane proteins (200 μg per lane) were separated by SDS-PAGE (10%), and the gel was washed with two changes of buffer (50 mM Tris, pH 7.4, 5 mM 2-mercaptoethanol) containing 20% 2-propanol at room temperature for 1 h, and once in buffer without 2-propanol for 1 h. Denaturation was accomplished by incubation of the gel in two changes of 6M guanidinium HCl in wash buffer for 1 h each. Renaturation was accomplished by incubation of the gel overnight at 4° C. in wash buffer containing 0.04% Tween-20. The gel was then equilibrated for 10 min at room temperature in kinase reaction mixture (25 mM HEPES, pH 7.4, 10 mM MgCl2, 0.5 mM EGTA and 5 mM NaF) and [γ-^32 p] ATP (50 μM final concentration; 1000 dpm pmol^-1) was added. Autophosphorylation was terminated by removal of the reaction mixture. The gel was washed with 6 changes of buffer (5% trichloroacetic acid, 1% sodium pyrophosphate) for 2 h and subjected to autoradiography. Top panel--Time course of lipid A activation. Bottom panel--Dose response at 5 minutes of lipid A stimulation. Autoradiograms represent one of three similar studies in both panels A and B.
On the day of an experiment, cells were resuspended (1×10^6 cells ml^-1) into serum-free RPMI 1640 containing 5 μg ml^-1 insulin and transferrin. After 2 h, cells were stimulated with lipid A or diluent (DMSO, <0.01% ). […] The postnuclear supernate was centrifuged at 200,000×g for 30 min and microsomal membranes were resuspended ([…]) into homogenizing buffer. Ceramide-activated protein kinase was detected by renaturation and autophosphorylation. Briefly, membrane proteins (200 μg per lane) were separated by SDS-PAGE (10%), and the gel was washed with two changes of buffer (50 mM Tris, pH 7.4, 5 mM 2-mercaptoethanol) containing 20% 2-propanol at room temperature for 1 h, and once in buffer without 2-propanol for 1 h. Denaturation was accomplished by incubation of the gel in two changes of 6M guanidinium HCl in wash buffer for 1 h each. Renaturation was accomplished by incubation of the gel overnight at 4° C. in wash buffer containing 0.04% Tween-20. The gel was then equilibrated for 10 min at room temperature in kinase reaction mixture (25 mM HEPES, pH 7.4, 10 mM MgCl2, 0.5 mM EGTA and 5 mM NaF) and [γ-^32 P] ATP (50 μM final concentration; 1000 dpm pmol^-1. Autophosphorylation was terminated by removal of the reaction mixture. The gel was washed with 6 changes of buffer (5% trichloracetic acid, 1% sodium pyrophosphate) for 2 h and subjected to autoradiography.
For studies involving activation of ceramide-activated protein kinase by LPS, HL-60 cells (13×10^6 ml^-1) were handled as above, and LPS (Salmonella typhosa, 50 ng ml^-1), recombinant LBP (1.7 μg ml^-1) or both LPS and LBP were added for the times indicated. Isolation of microsomal membranes and autophosphorylation of ceramide-activated protein kinase were performed as above.

[2] = tested on: ceramide-activated protein kinase; assay: Ceramide-activated protein kinase activity (EGFR peptide) in EL-4 cell fractions; conditions: 10 nM to 1 μM
Raf-1 = Raf-1 phosphorylation in intact HL-60 cells; type: cell-based, human (HL-60 cells)
Method: To examine this possibility, intact HL-60 cells were metabolically labeled with ^32 P-orthophosphate for 4 hr followed by stimulation with TNF for the indicated times (FIG. 20A). […] Raf-1 proteins were resolved by SDS-PAGE and autoradiographed.
FIG. 20A--300×10^6 cells were resuspended at 37° C. in 15 ml of serum-free phosphate-free RPMI medium ([…]) containing 6 mCi ^32 P-orthophosphate. After […], cells were resuspended into the same buffer without radiolabel (5×10^7 /point) and stimulated with TNF (1 nM). At the indicated times, ice-cold serum-free phosphate-free RPMI was added and cells were homogenized as described in FIG. 17 in RIPA lysis buffer. Cell debris was removed by centrifugation at 700×g for 5 min. […] After SDS-PAGE, Raf-1 was transferred to an Immobilon PVDF (Millipore) membrane according to the vendor's instructions. […] The data (CPM/Raf protein) are presented as fold of control and represent one of three studies performed in triplicate.

Compound: CCCCCCCCCCCCCC(=O)O[C@@H]1[C@@H](C)[C@@]2(O)[C@@H](C=C(CO)C[C@]3(O)C(=O)C(C)=C[C@@H]23)[C@@H]2C(C)(C)[C@]12OC(C)=O [TPA, 12-0-tetradecanoylphorbol-13-acetate]
- activation of CAP kinase [1]: did not activate CAP kinase

Compound: CCCCCCCCCCCCC/C=C/[C@@H](O)[C@@H](N)CO [sphingosine]
- enhancement of kinase activity, of control [2]: 1.5-2.5 of control

Compound: TNF-α
- duration of elevated Raf-1 phosphorylation (Raf-1; TNF): at least 20 min
- Raf-1 phosphorylation in intact HL-60 cells (Raf-1; TNF 1 nM, ceramide, sphingomyelinase 10 mU/ml): increased within seconds
